Laboratory results: PubChem BioAssay AID463206 (Broad Institute, 2010)
Calls of active or inactive are those of the source.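 Rule for the calls: active = caspase luminescence falls with dose and the half-maximal concentration AC50 from the fitted curve is at or below a set limit; inconclusive = flat fit at 30 to 70% signal loss, or invalid fit; inactive = AC50 above the limit, or signal rises instead.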

test system: INS-1E cytokine-induced caspase-3/7, Caspase-Glo luminescence, 48 h; test: inhibitors of cytokine-induced caspase-3/7 activity, dose response, orthogonal assay for beta-cell apoptosis protection project, INS-1E rat cells, luminescence (AID 463206)

Row | SMILES | AC50
1 | CC(C)CN(C(=O)COC(=O)C12CC3CC(CC(Cl)(C3)C1)C2)c1c(N)n(Cc2ccccc2)c(=O)[nH]c1=O | > 26 µM (inactive)
2 | O=C(N/N=C/c1ccc(O)c2ncccc12)c1cccc(Br)c1 | > 26 µM (inactive)
3 | COc1ccc2[nH]c3c(C)c4ccncc4c(C)c3c2c1 | 1.32 µM
4 | C=CCNC1=C(Cl)C(=O)c2ccccc2C1=O | > 26 µM (inactive)
5 | CN(Cc1cccnc1)C(=O)c1cc(COc2ccc3ncccc3c2)on1 | > 26 µM (inactive)
6 | Cc1[nH]n(-c2ccccc2)c(=O)c1/C=N/Nc1nncc(-c2ccccc2)n1 | > 26 µM (inactive)
7 | O=C(NN=C(c1ccccc1)c1ccccn1)c1ccccc1 | > 26 µM (inactive)
8 | N=c1c2c(n(Cc3ccc(Cl)c(Cl)c3)c3c1CCC3)CCCC2 | > 26 µM (inactive)
9 | COC1=CC(=O)[C@]2(C=C1OC)OC[C@@H]1Oc3c(ccc4c3C=CC(C)(C)O4)C(=O)[C@@H]12 | > 26 µM (inactive)
10 | CC(=O)c1cn(CCOc2cc(C)ccc2C)c2ccccc12 | > 26 µM (inactive)
11 | COc1ccc(-c2n(Cc3ccccc3)c3ccccc3[n+]2Cc2ccccc2)cc1 | > 26 µM (inactive)
12 | COCCN(C(=O)COC(=O)C1CCC(C(C)(C)C)CC1)c1c(N)n(Cc2ccccc2)c(=O)[nH]c1=O (stereo not drawn) | > 26 µM (inactive)
13 | Oc1c(C(Nc2cccc(C(F)(F)F)c2)c2ccncc2)ccc2cccnc12 (stereo not drawn) | > 26 µM (inactive)
14 | c1ccc(CNc2c3ccccc3nc3ccccc23)cc1 | 6.14 µM
15 | CC(Oc1cccc(Cl)c1)C(=O)Nc1cc(S(=O)(=O)N2CCOCC2)ccc1N1CCCCC1 (stereo not drawn) | > 26 µM (inactive)
16 | COc1ccc(O)c(/C=N/NC(=S)Nc2cccnc2)c1 | > 26 µM (inactive)
17 | CC1C/C(=C/c2ccncc2)C(=O)/C(=C/c2ccncc2)C1 (stereo not drawn) | > 26 µM (inactive)
18 | Cc1ccc2nc(-c3ccccn3)c(NC3CCCC3)n2c1 | > 12 µM (inactive)
19 | CCC(CO)[n+]1c(C)cc(/C=C2\Sc3ccccc3N2Cc2ccccc2)cc1C (stereo not drawn) | > 26 µM (inactive)
20 | CCCOc1ccc(Cc2c(Cl)nc(SC)nc2NC)cc1 | > 26 µM (inactive)
21 | Cc1cc(C)nc(SCc2ccc(C(=O)N/N=C/c3cccc(O)c3O)cc2)n1 | > 26 µM (inactive)
22 | c1ccc(CSc2ccc(-c3ccccn3)nn2)cc1 | > 26 µM (inactive)
23 | c1ccc(CCNc2ncnc3ccccc23)cc1 | > 26 µM (inactive)
24 | Nc1nc(-c2ccccn2)nc(N)c1Cc1ccc(Cl)cc1Cl | > 26 µM (inactive)

Row | SMILES | AC50
25 | CCC(=O)NC(c1cccs1)c1cc(Cl)c2cccnc2c1O (stereo not drawn) | > 26 µM (inactive)
26 | Cc1ccc2nc(NC(=O)/C=C/c3ccc4c(c3)OCO4)sc2c1 | > 26 µM (inactive)
27 | CC(=O)c1c(C)[nH]c(C(=O)OCC(=O)Nc2ccc(C)cc2[N+](=O)[O-])c1C | > 26 µM (inactive)
28 | COc1ccc(N(C)S(=O)(=O)c2cccc(C(=O)Nc3nc(C)c(C(C)=O)s3)c2)cc1 | > 26 µM (inactive)
29 | O=C(N/N=C/c1cccnc1)c1ccc(NC(=O)C(c2ccccc2)c2ccccc2)cc1 | > 26 µM (inactive)
30 | CC(C)COCc1ccc(O)c2ncccc12 | > 26 µM (inactive)
31 | Oc1ccccc1/C=N/Nc1nc2ccccc2o1 | > 26 µM (inactive)
32 | CC(C)CC(=O)NC(c1cccs1)c1ccc2cccnc2c1O (stereo not drawn) | > 26 µM (inactive)
33 | Nc1nc(N)c2cc(Sc3ccc4ccccc4c3)ccc2n1 | > 26 µM (inactive)
34 | CN(C)c1ccc(/C=C(\C#N)C(=O)OCC(=O)N(C)C2CCS(=O)(=O)C2)cc1 (stereo not drawn) | > 26 µM (inactive)
35 | Cc1ccccc1/C=C/C(=O)c1ccc([N+](=O)[O-])o1 | > 26 µM (inactive)
36 | CCOC(=O)c1sc(NC(=O)c2c(C)nn(Cc3ccccc3)c2C)cc1C | > 26 µM (inactive)
37 | COC(=O)c1ccc2c(=O)n(-c3ccccc3)c(SCN3C(=O)c4ccccc4C3=O)nc2c1 | > 26 µM (inactive)
38 | CCOc1ccc(-c2cc(C(=O)NCCCn3ccnc3)c3cc(Br)ccc3n2)cc1 | > 12 µM (inactive)
39 | CCN(CC)CCC(=O)Nc1cccc2c1C(=O)c1ccccc1C2=O | 2.26 µM
40 | C/C(=N\NC(=O)c1cc(Br)ccc1O)c1ccccn1 | > 26 µM (inactive)
41 | CC(C)COC(=O)c1ccc2c(c1O)C(=O)c1ccccc1C2=O | > 26 µM (inactive)
42 | Cc1sc2ncnc(NCC(O)c3ccccc3)c2c1C (stereo not drawn) | 23.5 µM
43 | CC(C)OCCCNc1ncnc2c1[nH]c1ccccc12 | > 26 µM (inactive)
44 | CCc1ccc2[nH]c(=O)c(C3C(C#N)=C(N)Oc4c3ccc3cccnc43)cc2c1 (stereo not drawn) | > 26 µM (inactive)
45 | Cc1ccc(NC(=O)c2cc(S(=O)(=O)NCCC3=CCCCC3)ccc2F)cc1 | > 26 µM (inactive)
46 | Cc1ccc(C(C)C)c(OCc2nn(CC(=O)c3ccc(Cl)cc3)c3[n+]2CCCCC3)c1 | > 26 µM (inactive)
47 | c1cc(-c2noc(CC3CCCCC3)n2)ccn1 | > 26 µM (inactive)
48 | CCc1ccc(C2CC(c3cccc(Cl)c3)n3nc(N)nc3N2)cc1 (stereo not drawn) | > 12 µM (inactive)
